Tests used:
[1] = design: method as in PMID 21498533; details: cited from earlier work
[2] = Micro-PET/CT brain imaging in ICR mice with thiamine deficiency (TD) and control mice; type: in vivo; details: control mice (C57BL/6 and ICR, Fig. 3a, c)
Text: Eight-week-old male C57BL/6 and ICR mice were randomly divided into two groups: TD mouse models (n = 2 for C57BL/6, one died due to anesthesia during micro-PET/CT scanning; n = 3 for ICR) were established by feeding thiamine-deprived diet (Trophic Animal Feed High-tech Co., Ltd., China). Control mice (n = 3 for each strain) were fed the general diet. Twenty-eight days later, all mice received PET/CT scanning.
The animals were anesthetized by inhaling 1.5–2% of isoflurane in air (1.5 L/min) and received CT scan for acquiring structure image and attenuation correction data. […] Brain PET imaging was immediately performed and dynamically acquired for 90 min with an energy window of 350–650 KeV and a time window of 3.438 ns. […] Dynamic images were reconstructed by OSEM3D/SP-MAP algorithm with two iterations. After scanning, the mice were sacrificed.

| Compound | SUV in the brains of mice [1] | SUVs in the brains [2] |
| --- | --- | --- |
| OC[C@H]1OC(O)[C@H]([18F])[C@@H](O)[C@@H]1O (some centres unmarked) [FDG, [^18F]-fluorodeoxyglucose] | 1–2 |  |
| ^18F-deoxy-thiamine |  | less than 0.4 |

Reference: paper PMC7575681 (EJNMMI Research, 2020)
